Measured values taken from publication PMC7400135, “3-(5-Nitrofuran-2-yl)prop-2-en-1-one Derivatives, with Potent Antituberculosis Activity, Inhibit A Novel Therapeutic Target, Arylamine N-acetyltransferase, in Mycobacteria” (Antibiotics, 2020).
In brackets after ≈: the same amount, converted by molar mass.

The molecules below were run on multidrug-resistant M. tuberculosis Peru isolate (assay: microbe, parasite or virus in culture). Conditions: Mycobacterium tuberculosis, 336 h, read-out: MIC MDR-TB.
Type: cell-based

| Compound | MIC [µg/mL] |
| --- | --- |
| CCN(CC)c1ccc(C(=O)/C=C/c2ccc([N+](=O)[O-])o2)cc1 [Compound 3] | 0.488 (≈ 1.55 µM) |
| O=C(/C=C/c1ccc([N+](=O)[O-])o1)c1ccc(N2CCOCC2)cc1 [Compound 1] | 0.976 (≈ 2.97 µM) |
| CO[C@H]1/C=C/O[C@@]2(C)Oc3c(C)c(O)c4c(O)c(c(/C=N/N5CCN(C)CC5)c(O)c4c3C2=O)NC(=O)/C(C)=C\C=C\[C@H](C)[C@H](O)[C@@H](C)[C@@H](O)[C@@H](C)[C@H](OC(C)=O)[C@@H]1C [Rifampicin] | > 500 |
| NNC(=O)c1ccncc1 [Isoniazid, reference compound] | > 500 |
| CN(Cc1cnc2nc(N)nc(N)c2n1)c1ccc(C(=O)N[C@@H](CCC(=O)O)C(=O)O)cc1 [Methotrexate, reference compound] | 250 (≈ 550 µM) |
| O=C(/C=C/c1ccc([N+](=O)[O-])o1)c1ccc(N2CCCCC2)cc1 [Compound 2] | 1.95 (≈ 5.98 µM) |
| CC[C@@H](CO)NCCN[C@@H](CC)CO [Ethambutol] | 8 (≈ 39.2 µM) |
| O=[N+]([O-])c1cn2c(n1)OC[C@@H](OCc1ccc(OC(F)(F)F)cc1)C2 [Pretomanid] | 0.488 (≈ 1.36 µM) |
